Measured values: patent publication US20100075907A1, “NEUROMEDIN U RECEPTOR AGONISTS AND USES THEREOF” (priority 2006, published 2010)
Non-standard residues stand in square brackets, D forms with d. Residues, ends and D or L forms follow the SMILES beside them. *: point of attachment. Succinimide(1-Et,3-yl) = CCN1C(=O)CC(*)C1=O

Legend:
mouse NMUR1-ATG = molecular target: T1, mouse NMUR1-ATG (Mus musculus, UniProt O55040); assay: 125I-hNMU-25 binding assay, mouse R1-ATG; parameters: expressed in transfected cells; host or cells: HEK-293 FLP-In cells (pcDNA5); details: for IC50: binding
T1 sequence (O55040 1-428): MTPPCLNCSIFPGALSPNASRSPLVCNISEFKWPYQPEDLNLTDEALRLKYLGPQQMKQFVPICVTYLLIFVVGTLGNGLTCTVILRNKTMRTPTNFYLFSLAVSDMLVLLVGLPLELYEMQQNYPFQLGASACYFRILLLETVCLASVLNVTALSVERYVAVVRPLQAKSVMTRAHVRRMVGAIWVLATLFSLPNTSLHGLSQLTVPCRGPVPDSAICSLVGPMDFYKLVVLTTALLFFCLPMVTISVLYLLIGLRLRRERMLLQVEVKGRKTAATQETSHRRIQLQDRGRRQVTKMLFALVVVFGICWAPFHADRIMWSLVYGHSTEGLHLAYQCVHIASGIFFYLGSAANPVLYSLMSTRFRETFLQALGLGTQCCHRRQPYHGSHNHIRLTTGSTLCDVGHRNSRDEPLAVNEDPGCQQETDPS
Protocol: (§1) Confluent cell monolayers expressing NMU receptors (the HEK cells described above) were harvested with phosphate buffered saline, collected by centrifugation, and resuspended in membrane buffer (50 mM TrisCl pH 7.4, 5 mM MgCl2, 1× Protease Inhibitor Cocktail, 10 μM phosphoramidon). After the cell pellet was homogenized, the solution was centrifuged at 18,000 rpm for 20 minutes at 4° C. The pellet was resuspended in membrane buffer to yield a final concentration of 0.5-5 μg/μL of membrane and stored at −80° C.
(§2) Experiments were performed in assay buffer (25 mM TrisCl, pH 7.4, 10 mM MgCl2, 2 mM EDTA, 1× Protease Inhibitor Cocktail, 100 μg/mL Bacitricin, 10 μM phosphoramidon) in 200 μL volumes in a 96-well format using 2-5 μg of membrane and 0.1 nM ^125I-hNMU-25 (about 12,000 cpm/well). For non-specific binding, 1 μM hNMU-25 was added. About 5 μL of peptides were added to measure antagonist activity, and the entire reaction was incubated at room temperature with shaking for 80 minutes. The reaction was terminated by rapid filtration through 0.3% poly-ethylenimine presoaked Millipore 96-well filter plates and washed with ice-cold buffer (5 mM TrisCl pH 7.4, 10 mM MgCl2, 2.5 mM EDTA, 0.04% Triton X-100). Plates were air-dried overnight at room temperature and recovered radioactivity was determined by standard scintillation counting. IC50 values were determined using GraphPad Prism software.
(§3) Concentration-response curves and radioligand-binding data were fitted using Prism (GraphPad Software). Results are summarized below in Tables 8 and 9.

mouse NMUR2 = mouse NMUR2 (Mus musculus, UniProt Q8BZ39); assay: 125I-hNMU-25 binding assay, mouse R2; parameters: expressed in transfected cells; host or cells: HEK-293 FLP-In cells (pcDNA5); details: for IC50: binding
Protocol: as §1, §2, §3

hNMUR2 = hNMUR2 (Homo sapiens, UniProt Q9GZQ4); assay: FLIPR calcium mobilization assay, human NMUR2; assay type: cell-based; parameters: expressed in transfected cells; host or cells: FLP-In CHO or HEK-293 FLP-In cells (pcDNA5); HEK-293/aeq17 lines (pcDNA3.1) were also made; details: functional data, human R2
rat NMUR1-TTG = molecular target: T2, rat NMUR1-TTG (Rattus norvegicus, UniProt Q9JJI5); assay: 125I-hNMU-25 binding assay, rat R1-TTG; parameters: expressed in transfected cells; host or cells: HEK-293 FLP-In cells (pcDNA5); details: for IC50: binding
T2 sequence (Q9JJI5 1-425): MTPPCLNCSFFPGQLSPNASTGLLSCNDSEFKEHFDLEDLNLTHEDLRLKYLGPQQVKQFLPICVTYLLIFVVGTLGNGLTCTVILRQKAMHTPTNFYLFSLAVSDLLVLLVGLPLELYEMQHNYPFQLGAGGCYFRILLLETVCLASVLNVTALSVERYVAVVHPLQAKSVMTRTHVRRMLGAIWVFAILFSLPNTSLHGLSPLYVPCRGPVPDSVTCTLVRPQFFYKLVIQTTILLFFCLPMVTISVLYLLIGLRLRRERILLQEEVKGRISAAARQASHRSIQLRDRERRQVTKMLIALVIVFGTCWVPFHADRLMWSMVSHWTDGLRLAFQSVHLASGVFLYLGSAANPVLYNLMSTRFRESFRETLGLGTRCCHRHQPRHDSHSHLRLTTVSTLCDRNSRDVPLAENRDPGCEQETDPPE
Protocol: as §1, §2, §3

rat NMUR2 = rat NMUR2 (Rattus norvegicus, UniProt Q9ESQ4); assay: 125I-hNMU-25 binding assay, rat R2; parameters: expressed in transfected cells; host or cells: HEK-293 FLP-In cells (pcDNA5); details: for IC50: binding
Protocol: as §1, §2, §3

hNMUR1 = molecular target: T3, hNMUR1 (Homo sapiens, UniProt Q9HB89); assay: FLIPR calcium mobilization assay, human NMUR1; assay type: cell-based; parameters: expressed in transfected cells; host or cells: FLP-In CHO or HEK-293 FLP-In cells (pcDNA5); HEK-293/aeq17 lines (pIRES-puro) were also made; details: functional data, human R1
T3 sequence (Q9HB89 1-426): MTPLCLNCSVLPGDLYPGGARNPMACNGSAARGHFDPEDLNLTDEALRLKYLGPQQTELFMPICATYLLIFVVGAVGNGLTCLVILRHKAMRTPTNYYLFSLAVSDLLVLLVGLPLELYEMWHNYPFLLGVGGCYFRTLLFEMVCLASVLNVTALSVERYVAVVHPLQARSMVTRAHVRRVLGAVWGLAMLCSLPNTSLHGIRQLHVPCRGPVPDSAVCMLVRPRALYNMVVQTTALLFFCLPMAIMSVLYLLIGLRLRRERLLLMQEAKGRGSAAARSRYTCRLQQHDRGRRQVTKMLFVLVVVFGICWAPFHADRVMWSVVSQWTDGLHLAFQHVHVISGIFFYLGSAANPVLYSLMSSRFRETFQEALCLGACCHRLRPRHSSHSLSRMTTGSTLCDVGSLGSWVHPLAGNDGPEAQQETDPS

Sequence of rat NMUR2 (Q9ESQ4 whole entry): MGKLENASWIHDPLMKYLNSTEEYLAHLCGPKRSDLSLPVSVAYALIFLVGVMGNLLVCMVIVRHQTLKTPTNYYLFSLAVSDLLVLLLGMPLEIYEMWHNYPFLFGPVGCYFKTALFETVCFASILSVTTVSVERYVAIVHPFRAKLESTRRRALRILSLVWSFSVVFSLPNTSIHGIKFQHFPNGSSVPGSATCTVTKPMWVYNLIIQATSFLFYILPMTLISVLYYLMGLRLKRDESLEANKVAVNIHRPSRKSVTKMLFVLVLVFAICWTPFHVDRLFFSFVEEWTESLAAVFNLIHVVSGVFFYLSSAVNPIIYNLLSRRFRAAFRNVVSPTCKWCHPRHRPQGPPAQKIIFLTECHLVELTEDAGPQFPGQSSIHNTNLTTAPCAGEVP
Sequence of hNMUR2 (Q9GZQ4 whole entry): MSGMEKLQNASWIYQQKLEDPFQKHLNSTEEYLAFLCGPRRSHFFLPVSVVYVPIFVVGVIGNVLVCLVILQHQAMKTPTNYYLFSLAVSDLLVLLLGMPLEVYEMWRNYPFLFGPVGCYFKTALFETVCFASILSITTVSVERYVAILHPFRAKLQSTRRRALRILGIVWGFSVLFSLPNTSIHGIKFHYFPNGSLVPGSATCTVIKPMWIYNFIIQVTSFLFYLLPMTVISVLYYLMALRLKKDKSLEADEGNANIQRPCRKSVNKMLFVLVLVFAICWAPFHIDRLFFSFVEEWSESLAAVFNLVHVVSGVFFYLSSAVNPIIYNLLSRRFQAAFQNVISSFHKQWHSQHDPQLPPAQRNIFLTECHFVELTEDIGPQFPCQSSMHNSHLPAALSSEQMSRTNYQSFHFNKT
Sequence of mouse NMUR2 (Q8BZ39 whole entry): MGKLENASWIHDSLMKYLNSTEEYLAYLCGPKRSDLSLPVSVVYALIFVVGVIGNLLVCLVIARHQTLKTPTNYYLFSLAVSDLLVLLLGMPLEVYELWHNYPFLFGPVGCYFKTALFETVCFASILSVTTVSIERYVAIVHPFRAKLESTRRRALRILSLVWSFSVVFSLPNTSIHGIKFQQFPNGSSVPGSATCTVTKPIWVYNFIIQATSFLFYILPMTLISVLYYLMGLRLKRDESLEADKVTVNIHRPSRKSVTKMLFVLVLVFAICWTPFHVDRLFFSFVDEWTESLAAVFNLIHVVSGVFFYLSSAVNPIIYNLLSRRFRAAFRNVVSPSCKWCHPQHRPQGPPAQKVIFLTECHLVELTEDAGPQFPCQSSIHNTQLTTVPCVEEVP

Molecule	% inhibition of NMU-25 binding (mouse NMUR1-ATG) [%]	IC50 (mouse NMUR1-ATG) [nM]	% inhibition of NMU-25 binding (mouse NMUR2) [%]	IC50 (mouse NMUR2) [nM]	IC50 (hNMUR2) [nM]	% inhibition of NMU-25 binding (rat NMUR1-TTG) [%]	IC50 (rat NMUR1-TTG) [nM]	% inhibition of NMU-25 binding (rat NMUR2) [%]	IC50 (rat NMUR2) [nM]	IC50 (hNMUR1) [nM]
CC(C)C[C@@H](NC(=O)[C@H](Cc1ccccc1)NC(=O)[C@H](Cc1ccc(O)cc1)NC(=O)CNC(=O)[C@H](CCCNC(=N)N)NC(=O)[C@H](CO)NC(=O)[C@H](CCC(N)=O)NC(=O)[C@H](CO)NC(=O)[C@H](C)NC(=O)[C@H](Cc1ccccc1)NC(=O)[C@@H]1CCCN1C(=O)[C@H](CO)NC(=O)[C@H](CCC(N)=O)NC(=O)[C@H](Cc1ccccc1)NC(=O)[C@H](CCC(=O)O)NC(=O)[C@H](CCC(=O)O)NC(=O)[C@H](CC(=O)O)NC(=O)[C@@H](NC(=O)[C@H](CCCNC(=N)N)NC(=O)[C@@H](N)Cc1ccccc1)C(C)C)C(=O)N[C@@H](Cc1c[nH]c2ccccc12)C(=O)N[C@@H](CCCNC(=N)N)C(=O)N1CCC[C@H]1C(=O)N[C@@H](CCCNC(=N)N)C(=O)N[C@@H](CC(N)=O)C(N)=O [Agonist H] (H-FRVDEEFQSPFASQSRGYF[dL]WRPRN-NH2; N-terminus assumed)	77	66	20	> 1000	> 1000	100	11	0	> 1000	1.25
CCN1C(=O)CC(SC[C@H](NC(C)=O)C(=O)N[C@@H](Cc2ccccc2)C(=O)N[C@@H](CCCNC(=N)N)C(=O)N[C@H](C(=O)N[C@@H](CC(=O)O)C(=O)N[C@@H](CCC(=O)O)C(=O)N[C@@H](CCC(=O)O)C(=O)N[C@@H](Cc2ccccc2)C(=O)N[C@@H](CCC(N)=O)C(=O)N[C@@H](CO)C(=O)N2CCC[C@H]2C(=O)N[C@@H](Cc2ccccc2)C(=O)N[C@@H](C)C(=O)N[C@@H](CO)C(=O)N[C@@H](CCC(N)=O)C(=O)N[C@@H](CO)C(=O)N[C@@H](CCCNC(=N)N)C(=O)NCC(=O)N[C@@H](Cc2ccc(O)cc2)C(=O)N[C@@H](Cc2ccccc2)C(=O)N[C@H](C)C(=O)N[C@@H](Cc2c[nH]c3ccccc23)C(=O)N[C@@H](CCCNC(=N)N)C(=O)N2CCC[C@H]2C(=O)N[C@@H](CCCNC(=N)N)C(=O)N[C@@H](CC(N)=O)C(N)=O)C(C)C)C1=O (some centres unmarked) [NMU13] (Ac-C(Succinimide(1-Et,3-yl))FRVDEEFQSPFASQSRGYF[dA]WRPRN-NH2)	100	–	30	> 1000	> 1000	100	–	0	> 1000	–
H-FRVDEEFQSPFASQSRGYFLFRPRN-NH2 [hNMU-25, reference compound]	–	0.4	–	0.2	0.8	–	0.2	–	0.6	0.2
